Measured values from patent US9302999B2, “Substituted triazoles as herbicides” (E. I. DU PONT DE NEMOURS AND COMPANY, priority 2012, dated 2016).

Columns and labels:
Format in all cases: in vivo
[1] = system: ducksalad (Heteranthera limosa); assay: Test C flooded paddy test: ducksalad; conditions: scale 0 to 100 (0 no effect, 100 complete control)
Summary of the method: (§1)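 Visual ratings from 0 (no effect) to 100 (complete control), made against untreated controls 13 to 15 days after treatment, express plant response. Compounds went directly into paddy water over 2-leaf stage plants in pots flooded to 3 cm.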

[2] = system: velvetleaf (Abutilon theophrasti); assay: Test A pre-/postemergence: velvetleaf; conditions: for Velvetleaf plant response rating: Postemergence; for Plant response rating, Velvetleaf: Preemergence
Summary of the method: (§2)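 Pre: directed soil spray after planting in loam + sand. Post: same formulation (non-phytotoxic solvent + surfactant) on 1–2-leaf plants, 2–10 cm. Greenhouse ~10 d; visual injury 0–100 vs untreated.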

rice (Oryza sativa) = assay: Test C flooded paddy test: rice; conditions: scale 0 to 100 (0 no effect, 100 complete control)
Summary of the method: as §1

[3] = system: sedge, umbrella (small-flower umbrella sedge, Cyperus difformis); assay: Test C flooded paddy test: sedge, umbrella; conditions: scale 0 to 100 (0 no effect, 100 complete control)
Summary of the method: as §1

[4] = system: barnyardgrass (Echinochloa crus-galli); assay: Test C flooded paddy test: barnyardgrass; conditions: scale 0 to 100 (0 no effect, 100 complete control)
Summary of the method: as §1

[5] = system: morningglory (Ipomoea spp.); assay: Test A pre-/postemergence: morningglory; conditions: for Morningglory plant response rating: Postemergence; for Plant response rating, Morningglory: Preemergence
Summary of the method: as §2

[6] = system: foxtail, giant (giant foxtail, Setaria faberii); assay: Test A pre-/postemergence: foxtail, giant; conditions: for Foxtail, Giant plant response rating: Postemergence; for Plant response rating, Foxtail, Giant: Preemergence
Summary of the method: as §2

[7] = system: barnyardgrass (Echinochloa crus-galli); assay: Test A pre-/postemergence: barnyardgrass; conditions: for Barnyardgrass plant response rating: Postemergence; for Plant response rating, Barnyardgrass: Preemergence
Summary of the method: as §2

[8] = system: pigweed (Amaranthus retroflexus); assay: Test A pre-/postemergence: pigweed; conditions: for Pigweed plant response rating: Postemergence; for Plant response rating, Pigweed: Preemergence
Summary of the method: as §2

corn (Zea mays) = assay: Test A pre-/postemergence: corn; conditions: for Corn plant response rating: Postemergence; for Plant response rating, Corn: Preemergence
Summary of the method: as §2

[9] = system: wheat (Triticum aestivum); assay: Test A pre-/postemergence: wheat; conditions: for Wheat plant response rating: Postemergence; for Plant response rating, Wheat: Preemergence
Summary of the method: as §2

[10] = system: crabgrass, large (large crabgrass, Digitaria sanguinalis); assay: Test A pre-/postemergence: crabgrass, large; conditions: for Crabgrass, Large plant response rating: Postemergence; for Plant response rating, Crabgrass, Large: Preemergence
Summary of the method: as §2

[11] = Flood (flooded paddy test), 125 g ai/ha, visual rating after 13 to 15 days
[12] = Flood (flooded paddy test), 250 g ai/ha, visual rating after 13 to 15 days
[13] = 125 g ai/ha, 0 to 100 scale, 0 is no effect, 100 is complete control
[14] = 500 g ai/ha, visual rating on 0 to 100 scale (0 no effect, 100 complete control), approximately ten days
[15] = 125 g ai/ha, 0 to 100 scale (0 no effect, 100 complete control)
[16] = 500 g ai/ha, 0 to 100 scale, 0 is no effect, 100 is complete control

For Cc1nn(-c2ccc(C(F)(F)F)cc2)nc1Oc1ccnc(OCC(F)(F)F)c1 [Compound 77], the “Plant response rating, Ducksalad” value [1, 11] was 0, the “Plant response rating, Ducksalad” value [1, 12] was 0 and the “Plant response rating, Ducksalad” value ([1]; Flood, 31 g ai/ha) was 0. The “Plant response rating, Ducksalad” value ([1]; Flood, 62 g ai/ha) was 0, the “Velvetleaf plant response rating” value [2, 13] was 10 and the “Velvetleaf plant response rating” value [2, 14] was 10. For the same molecule, the “Plant response rating, Velvetleaf” value [2, 15] was 0, the “Plant response rating, Velvetleaf” value [2, 16] was 0 and the “Plant response rating, Rice” value (rice (Oryza sativa); [11]) was 0. The “Plant response rating, Rice” value (rice (Oryza sativa); [12]) was 0, the “Plant response rating, Rice” value (rice (Oryza sativa); Flood, 31 g ai/ha) was 0 and the “Plant response rating, Rice” value (rice (Oryza sativa); Flood, 62 g ai/ha) was 0. For the same molecule, the “Plant response rating, Sedge, Umbrella” value [3, 11] was 0, the “Plant response rating, Sedge, Umbrella” value [3, 12] was 0 and the “Plant response rating, Sedge, Umbrella” value ([3]; Flood, 31 g ai/ha) was 0. For the same molecule, the “Plant response rating, Sedge, Umbrella” value ([3]; Flood, 62 g ai/ha) was 0, the “Plant response rating, Barnyardgrass” value [4, 11] was 0 and the “Plant response rating, Barnyardgrass” value [4, 12] was 0. The “Plant response rating, Barnyardgrass” value ([4]; Flood, 31 g ai/ha) was 0, the “Plant response rating, Barnyardgrass” value ([4]; Flood, 62 g ai/ha) was 0 and the “Morningglory plant response rating” value [5, 13] was 10. The “Morningglory plant response rating” value [5, 14] was 10, the “Plant response rating, Morningglory” value [5, 15] was 0 and the “Plant response rating, Morningglory” value [5, 16] was 0. For the same molecule, the “Foxtail, Giant plant response rating” value [6, 13] was 10, the “Foxtail, Giant plant response rating” value [6, 14] was 20 and the “Plant response rating, Foxtail, Giant” value [6, 15] was 0. For the same molecule, the “Plant response rating, Foxtail, Giant” value [6, 16] was 10, the “Barnyardgrass plant response rating” value [7, 13] was 0 and the “Barnyardgrass plant response rating” value [7, 14] was 10. For the same molecule, the “Plant response rating, Barnyardgrass” value [7, 15] was 0, the “Plant response rating, Barnyardgrass” value [7, 16] was 0 and the “Pigweed plant response rating” value [8, 13] was 90. For the same molecule, the “Pigweed plant response rating” value [8, 14] was 100, the “Plant response rating, Pigweed” value [8, 15] was 0 and the “Plant response rating, Pigweed” value [8, 16] was 10. For the same molecule, the “Corn plant response rating” value (corn (Zea mays); [13]) was 0, the “Corn plant response rating” value (corn (Zea mays); [14]) was 10 and the “Plant response rating, Corn” value (corn (Zea mays); [15]) was 0. The “Plant response rating, Corn” value (corn (Zea mays); [16]) was 0, the “Wheat plant response rating” value [9, 13] was 0 and the “Wheat plant response rating” value [9, 14] was 0. The “Plant response rating, Wheat” value [9, 15] was 0, the “Plant response rating, Wheat” value [9, 16] was 0 and the “Crabgrass, Large plant response rating” value [10, 13] was 10. For the same molecule, the “Crabgrass, Large plant response rating” value [10, 14] was 20, the “Plant response rating, Crabgrass, Large” value [10, 15] was 0 and the “Plant response rating, Crabgrass, Large” value [10, 16] was 10.
For COc1nn(-c2ccc(C(F)(F)F)cc2)nc1C(O)c1ccnc(C(F)(F)F)c1 (stereo not drawn) [Compound 78], the “Plant response rating, Ducksalad” value [1, 11] was 0, the “Plant response rating, Ducksalad” value [1, 12] was 0 and the “Plant response rating, Ducksalad” value ([1]; Flood, 31 g ai/ha) was 0. For the same molecule, the “Plant response rating, Ducksalad” value ([1]; Flood, 62 g ai/ha) was 0, the “Velvetleaf plant response rating” value [2, 13] was 10 and the “Velvetleaf plant response rating” value [2, 14] was 20. The “Plant response rating, Velvetleaf” value [2, 15] was 10, the “Plant response rating, Velvetleaf” value [2, 16] was 20 and the “Plant response rating, Rice” value (rice (Oryza sativa); [11]) was 0. The “Plant response rating, Rice” value (rice (Oryza sativa); [12]) was 0, the “Plant response rating, Rice” value (rice (Oryza sativa); Flood, 31 g ai/ha) was 0 and the “Plant response rating, Rice” value (rice (Oryza sativa); Flood, 62 g ai/ha) was 0. The “Plant response rating, Sedge, Umbrella” value [3, 11] was 0, the “Plant response rating, Sedge, Umbrella” value [3, 12] was 0 and the “Plant response rating, Sedge, Umbrella” value ([3]; Flood, 31 g ai/ha) was 0. For the same molecule, the “Plant response rating, Sedge, Umbrella” value ([3]; Flood, 62 g ai/ha) was 0, the “Plant response rating, Barnyardgrass” value [4, 11] was 0 and the “Plant response rating, Barnyardgrass” value [4, 12] was 20. The “Plant response rating, Barnyardgrass” value ([4]; Flood, 31 g ai/ha) was 0, the “Plant response rating, Barnyardgrass” value ([4]; Flood, 62 g ai/ha) was 0 and the “Morningglory plant response rating” value [5, 13] was 0. The “Morningglory plant response rating” value [5, 14] was 40, the “Plant response rating, Morningglory” value [5, 15] was 0 and the “Plant response rating, Morningglory” value [5, 16] was 10. The “Foxtail, Giant plant response rating” value [6, 13] was 10, the “Foxtail, Giant plant response rating” value [6, 14] was 30 and the “Plant response rating, Foxtail, Giant” value [6, 15] was 20. For the same molecule, the “Plant response rating, Foxtail, Giant” value [6, 16] was 70, the “Barnyardgrass plant response rating” value [7, 13] was 0 and the “Barnyardgrass plant response rating” value [7, 14] was 10. For the same molecule, the “Plant response rating, Barnyardgrass” value [7, 15] was 0, the “Plant response rating, Barnyardgrass” value [7, 16] was 20 and the “Pigweed plant response rating” value [8, 13] was 50. The “Pigweed plant response rating” value [8, 14] was 90, the “Plant response rating, Pigweed” value [8, 15] was 60 and the “Plant response rating, Pigweed” value [8, 16] was 70. For the same molecule, the “Corn plant response rating” value (corn (Zea mays); [13]) was 0, the “Corn plant response rating” value (corn (Zea mays); [14]) was 10 and the “Plant response rating, Corn” value (corn (Zea mays); [15]) was 0. The “Plant response rating, Corn” value (corn (Zea mays); [16]) was 0, the “Wheat plant response rating” value [9, 13] was 0 and the “Wheat plant response rating” value [9, 14] was 0. The “Plant response rating, Wheat” value [9, 15] was 0, the “Plant response rating, Wheat” value [9, 16] was 0 and the “Crabgrass, Large plant response rating” value [10, 13] was 10. The “Crabgrass, Large plant response rating” value [10, 14] was 20, the “Plant response rating, Crabgrass, Large” value [10, 15] was 60 and the “Plant response rating, Crabgrass, Large” value [10, 16] was 80.
COc1nn(-c2ccc(C(F)(F)F)cc2)nc1C(C)(O)c1ccnc(C(F)(F)F)c1 (stereo not drawn) [Compound 79] was tested, and the “Plant response rating, Ducksalad” value [1, 11] was 0, the “Plant response rating, Ducksalad” value [1, 12] was 0 and the “Plant response rating, Ducksalad” value ([1]; Flood, 31 g ai/ha) was 0. The “Plant response rating, Ducksalad” value ([1]; Flood, 62 g ai/ha) was 0, the “Velvetleaf plant response rating” value [2, 13] was 0 and the “Velvetleaf plant response rating” value [2, 14] was 0. The “Plant response rating, Velvetleaf” value [2, 15] was 0, the “Plant response rating, Velvetleaf” value [2, 16] was 0 and the “Plant response rating, Rice” value (rice (Oryza sativa); [11]) was 0. For the same molecule, the “Plant response rating, Rice” value (rice (Oryza sativa); [12]) was 0, the “Plant response rating, Rice” value (rice (Oryza sativa); Flood, 31 g ai/ha) was 0 and the “Plant response rating, Rice” value (rice (Oryza sativa); Flood, 62 g ai/ha) was 0. The “Plant response rating, Sedge, Umbrella” value [3, 11] was 0, the “Plant response rating, Sedge, Umbrella” value [3, 12] was 0 and the “Plant response rating, Sedge, Umbrella” value ([3]; Flood, 31 g ai/ha) was 0. For the same molecule, the “Plant response rating, Sedge, Umbrella” value ([3]; Flood, 62 g ai/ha) was 0, the “Plant response rating, Barnyardgrass” value [4, 11] was 0 and the “Plant response rating, Barnyardgrass” value [4, 12] was 0. The “Plant response rating, Barnyardgrass” value ([4]; Flood, 31 g ai/ha) was 0, the “Plant response rating, Barnyardgrass” value ([4]; Flood, 62 g ai/ha) was 0 and the “Morningglory plant response rating” value [5, 13] was 0. For the same molecule, the “Morningglory plant response rating” value [5, 14] was 0, the “Plant response rating, Morningglory” value [5, 15] was 0 and the “Plant response rating, Morningglory” value [5, 16] was 0. For the same molecule, the “Foxtail, Giant plant response rating” value [6, 13] was 0, the “Foxtail, Giant plant response rating” value [6, 14] was 10 and the “Plant response rating, Foxtail, Giant” value [6, 15] was 0. For the same molecule, the “Plant response rating, Foxtail, Giant” value [6, 16] was 0, the “Barnyardgrass plant response rating” value [7, 13] was 0 and the “Barnyardgrass plant response rating” value [7, 14] was 0. For the same molecule, the “Plant response rating, Barnyardgrass” value [7, 15] was 0, the “Plant response rating, Barnyardgrass” value [7, 16] was 0 and the “Pigweed plant response rating” value [8, 13] was 0. For the same molecule, the “Pigweed plant response rating” value [8, 14] was 0, the “Plant response rating, Pigweed” value [8, 15] was 0 and the “Plant response rating, Pigweed” value [8, 16] was 0. The “Corn plant response rating” value (corn (Zea mays); [13]) was 0, the “Corn plant response rating” value (corn (Zea mays); [14]) was 0 and the “Plant response rating, Corn” value (corn (Zea mays); [15]) was 0. For the same molecule, the “Plant response rating, Corn” value (corn (Zea mays); [16]) was 0, the “Wheat plant response rating” value [9, 13] was 0 and the “Wheat plant response rating” value [9, 14] was 0. The “Plant response rating, Wheat” value [9, 15] was 0, the “Plant response rating, Wheat” value [9, 16] was 0 and the “Crabgrass, Large plant response rating” value [10, 13] was 0. For the same molecule, the “Crabgrass, Large plant response rating” value [10, 14] was 0, the “Plant response rating, Crabgrass, Large” value [10, 15] was 0 and the “Plant response rating, Crabgrass, Large” value [10, 16] was 0.
